# Where a name gives a salt, the structure may show the parent alone.
# Tests used:
# pentobarbital anesthesia = assay: Prolongation of pentobarbital anesthesia (Test Example 3); type: in vivo, guinea pig (male Hartley); conditions: for AD (oral dose which prolonged the pentobarbital-induced anesthesia by 15%, AD15): 1 hr before pentobarbital 30 mg/kg s.c.
# From the text: Sedation is the side effect with the highest incidence in histamine (H1)-blockers and anti-allergic drugs with an H1 blocking effect (Douglas, W. W. (1980) The Pharmacological Basis of Therapeutis, A. Goodman Gilman, L. S. Goodman, A. Gilman (eds), Macmillian, New York) and therefore anti-allergic drugs which overcome this disadvantage are needed. We investigated the effects of test compounds on pentobarbital anesthesia as a method for measuring incidence of sedation in animals.
# Prolongation effects on anesthesia are usually investigated with ethanol or thiopental (in mice and rats). However, we investigated it with pentobarbital in guinea pigs because our data with pentobarbital corresponded well with the clinical data, that is, the incidence of sedation of other anti-allergic drugs in clinical use.
# Sodium Pentobarbital (30 mg/kg) was subcutaneously injected into the backs of male Hartley guinea pigs weighing approximately 400 g, and the duration of postural reflex abolition was then measured.
# Test compounds were administered orally 1 hr before the pentobarbital injection. The prolongation rate obtained with the test compound was calculated by comparison to the control (the duration of pentobarbital anesthesia in animals untreated with the test compounds). In addition, the AD15 value (the oral dose which prolonged the pentobarbital-induced anesthesia by 15%) was determined, and the results are shown in the table.
# [1] = tested on: Antigen-induced Bronchoconstriction; assay: Effect on antigen-induced bronchoconstriction in sensitized guinea pigs (Test Example 2"); type: in vivo, guinea pig (male Hartley); conditions: Cavia porcellus, po, read-out: Inhibitory rate; for inhibition at 0.025 mg/kg: 0.025 mg/kg (Table 4"); for inhibition at 0.1 mg/kg: 0.1 mg/kg (Table 4")
# Protocol: (§1) The test animals used were male guinea pigs of the Hartley strain (weighing about 400 to 500 g). These animals were sensitized according to Morris' method [H. R. Morris; Br. J. Pharmac., 67, 179-184 (1979)]. The guinea pigs were injected twice subcutaneously and intraperitoneally, each time with 25 mg of egg albumin (grade 5, Sigma) at weekly intervals. 7 days after the second of these weekly injections, the animals were fasted for one day and then exposed to an aerosol of egg albumin (10 mg/ml). All of the animals so exposed responded with convulsions, indicating respiratory distress due to airway constriction, within 6 minutes.
# 60 minutes before the egg albumin challenge, one of the test compounds shown in the following Table 4" was administered orally to each of the animals.
# [2] = tested on: Passive Cutaneous Anaphylaxis (PCA); assay: Inhibitory effect on passive cutaneous anaphylaxis (PCA) in rats (Test Example 1"); type: in vivo, rat (male SD); conditions: Rattus norvegicus, po, read-out: Inhibitory rate; for inhibition at 0.05 mg/kg: 0.05 mg/kg (Table 3"); for inhibition at 0.2 mg/kg: 0.2 mg/kg (Table 3"); for inhibition at 3.1 mg/kg: 3.1 mg/kg (Table 3")
# Protocol: Male SD rats (5 weeks old) were used as the test animals in groups, each containing 4 animals. The rats were sensitized by intradermal injection of 0.05 ml of the diluted antiserum solution in the dorsal position. […] 60 minutes later they were injected in the caudal vein with 5 ml/kg body weight of physiological saline containing 0.4% w/v of egg albumin and 1.0% w/v of Evans Blue.
# (§2) The inhibitory rate was calculated by the following equation.
# (§3) Inhibitory rate (%)=(1-B/A)×100
# (§4) A: amount of exuded dye in the control group
# (§5) B: amount of exuded dye in the test group.
# eosinophil chemotaxis = assay: Inhibitory effect of eosinophil chemotaxis to zymosan-activated serum (Test Example 4); type: cell-based, guinea pig; conditions: Cavia porcellus, Eosinophil, 0.1 μg/ml; ZAS
# From the text: Eosinophils were harvested from the peritoneal cavity of polymyxin B-treated guinea pigs (body weight, approx. 400 g) according to the method described by Pincus (Pincus, S. H. et al.: Blood, 52, 127-134 (1978)). The eosinophils were separated and purified by Ficoll-paque (Pharmacia) density gradient centrifugation. Then, the eosinophil chemotaxis to zymosan-activated serum (ZAS) was investigated by a modification of the Boyden micropore filter technique (Gosset, P. et al.: Clin. Exp. Immunol., 65, 654-663 (1986)). Briefly, the assay was carried out in a 48-well microchemotaxis assembly (Neuroprobe; Cabin John, Md., U.S.A.). Cell suspensions were adjusted to 2.5×10^5 /50 μl, and placed in the upper chamber separated from the chemoattractant (ZAS) solution in the lower chamber by a 3 μm pore size polycarbonate membrane filter (Nucleopore Co., Pleasanton, U.S.A.). The cells were incubated for 10 min at 37° C. with the test compounds, prior to their addition to the chemotaxis chamber. Migration was carried out at 37° C. in humidified air with 5% CO2 for 2 h. After the incubation, the migrated eosinophils in the lower Chamber were counted by a hemocytometer.
# The percentage inhibition obtained with the test compound was calculated by comparison to the positive control (migration of non-treated cells in response to the ZAS), according to the formula:
# Percent inhibition=[1-(A/B)]×100
# A: (migration with a test compound)-(spontaneous migration)
# B: (positive control migration)-(spontaneous migration)
# eosinophil accumulation = assay: Inhibitory effect on antigen induced eosinophil accumulation (Test Example 4); type: in vivo, guinea pig (male Hartley); conditions: Cavia porcellus, Eosinophil, po, 1 hr before antigen challenge, BALF 24 hr after;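 also: oral dose 0.1 mg/kg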
# Protocol: Male Hartley guinea pigs weighing approximately 400 g were sensitized with ovalbumin by the method described by Engineer et al. (Engineer, D. M. et al., J. Pharmacol., 62, 61-66 (1978)), and the number of eosinophils infiltrating into the bronchoalveolar space due to antigen challenge was examined.
# Briefly, the animals were exposed to the antigen (ovalbumin) for 6 min. At 24 hr. after antigen challenge, the guinea pigs were anesthetized with pentobarbital (30 mg/kg, i.p.). The trachea was cannulated by a disposable intravenous catheter, and the airway lumen (especially in the right posterior lobe) was washed with 0.9% saline (10 ml/kg) kept at 37° C. The bronchoalveolar lavage fluid (BALF) from each animal was centrifuged (150 g for 10 min at 4° C.). After removing the supernatant, the cell pellet was resuspended in HBSS (Hank's balanced solution) and a total cell count was performed using a standard hemocytometer. Differential cell counts were done on smears fixed in methanol and stained with Wright-Giemsa solution, and by light microscopy under oil immersion (×1000). The proportion of eosinophil population was expressed as a percentage of total cells, and this ratio together with the total cell count was used to calculate the total number of eosinophils. The percent inhibition of the test compounds which was administered 1 hr before antigen challenge, was calculated as follows:
# Percent inhibition=[1-(C-A)/(B-A)]×100
# A: negative control: mean value of cell counts in BALF from the animals with inhaled saline
# B: positive control: mean value of cell counts in BALF from the animals 24 h after antigen challenge
# C: cell counts of BALF for the animals pretreated with a test compound 24 h after antigen challenge
# [3] = tested on: Passive Cutaneous Anaphylaxis (PCA); assay: Inhibitory effect on passive cutaneous anaphylaxis (PCA) in rats (Test Example 1); type: in vivo, rat (male SD); conditions: Rattus norvegicus, po, read-out: Inhibitory rate
# Protocol: Male SD rats (5 weeks old) were used as the test animals in groups, each containing 4 animals. The rats were sensitized by intradermal injection of 0.05 ml of the diluted antiserum solution in the dorsal position. 48 hours after this injection, a suspension of the test compound in an aqueous 0.5% w/v tragacanth solution was orally administered to the rats, fasted for one day, and 60 minutes later they were injected in the caudal vein with 5 ml/kg body weight of physiological saline containing 0.4% w/v egg albumin and 1.0% w/v Evans Blue.
# as §2, §3, §4, §5
# [4] = tested on: Antigen-induced Bronchoconstriction; assay: Effect on antigen-induced bronchoconstriction in sensitized guinea pigs (Test Example 2); type: in vivo, guinea pig (male Hartley); conditions: Cavia porcellus, po, 60 min before challenge, read-out: Inhibitory rate
# Protocol: as §1, with “were” for “were injected twice”, “intraperitoneally injected twice,” for “intraperitoneally,”
# 60 minutes before the egg albumin challenge, one of the test compounds shown in the following Table 5 was administered orally to each of the animals.
compound,measurement,setting,value
"O=C(O)CCCN1CCN2c3ccccc3Cc3ccccc3C2C1 (racemic) [Example 22, 4-(1,2,3,4,10,14b-Hexahydrodibenzo[c,f]pyrazino[1,2-a]azepin-2-yl)butanoic acid]","AD (oral dose which prolonged the pentobarbital-induced anesthesia by 15%, AD15)","pentobarbital anesthesia; po, guinea pigs",59 mg/kg
"O=C(O)CCCN1CCN2c3ccccc3Cn3cccc3[C@H]2C1 [3""]",inhibition at 0.025 mg/kg,[1],60%
same,inhibition at 0.1 mg/kg,[1],100%
same,inhibition at 0.05 mg/kg,[2],66%
same,inhibition at 0.2 mg/kg,[2],72%
O=C(O)CCCN1CCN2c3ccccc3Cc3ccccc3[C@@H]2C1 [22 HCl R-isomer],inhibition at 0.1 µg/mL,eosinophil chemotaxis,53%
same,inhibition at 0.025 mg/kg,[1],40%
same,inhibition at 0.1 mg/kg,[1],80%
same,inhibition at 0.4 mg/kg,"[1]; 0.4 mg/kg (Table 4"")",100%
same,inhibition at 0.05 mg/kg,[2],55%
same,inhibition at 0.2 mg/kg,[2],67%
same,inhibition at 0.1 mg/kg,eosinophil accumulation,59%
O=C(O)CCCN1CCN2c3ccccc3Cc3ccccc3[C@@H]2C1 [22 R-isomer],prolongation of anesthesia side effect,pentobarbital anesthesia; in words,extremely low
same,"AD (oral dose which prolonged the pentobarbital-induced anesthesia by 15%, AD15)","pentobarbital anesthesia; po, guinea pigs",123 mg/kg
same,amount of R-isomer required as compared with the racemate for the same prolongation time,"pentobarbital anesthesia; ratio to racemate, po, guinea pigs",about double
O=C(O)CCCN1CCN2c3ccccc3Cc3ccccc3[C@H]2C1 [22 S-isomer],"AD (oral dose which prolonged the pentobarbital-induced anesthesia by 15%, AD15)","pentobarbital anesthesia; po, guinea pigs",75 mg/kg
"NC(=O)COCCN1CCN2c3ccccc3Cc3ccccc3C2C1 (centres unmarked) [Example 26, 2-(1,2,3,4,10,14b-Hexahydrodibenzo[c,f]pyrazino[1,2-a]azepin-2-yl)ethoxyacetamide]",inhibition at 0.05 mg/kg,[3],44%
same,inhibition at 0.2 mg/kg,[3],63%
same,inhibition at 0.4 mg/kg,[4]; 0.4 mg/kg,80%
"O=C(O)COCCN1CCN2c3ccccc3Cc3ccccc3[C@H]2C1 [Example 59, (S)-2-(1,2,3,4,10,14b-Hexahydrodibenzo[c,f]pyrazino[1,2-a]azepin-2-yl)ethoxyacetic Acid]",inhibition at 0.05 mg/kg,[3],59%
same,inhibition at 0.2 mg/kg,[3],74%
same,inhibition at 0.05 mg/kg,[4]; 0.05 mg/kg,60%
"O=C(O)COCCN1CCN2c3ccccc3Cc3ccccc3[C@@H]2C1 [Example 65, (R)-2-(1,2,3,4,10,14b-hexahydrodibenzo[c,f]pyrazino[1,2-a]azepin-2-yl)ethoxyacetic acid monohydrate]",inhibition at 0.05 mg/kg,[3],45%
same,inhibition at 0.4 mg/kg,[3]; 0.4 mg/kg,58%
same,inhibition at 0.1 mg/kg,[4]; 0.1 mg/kg,60%
"OCCN1CCN2c3ccccc3Cn3cccc3C2C1 (centres unmarked) [Prior art compound D, 2-(2-hydroxyethyl)-1,3,4,14b-tetrahydro-2H, 10H-pyrazino[1,2-a]pyrrolo[2,1-c][1,4]benzodiazepine, reference compound]",inhibition at 3.1 mg/kg,[3],30%
same,inhibition at 3.1 mg/kg,[2],30%
"NC(=O)CCN1CCN2c3ccccc3Cc3ccccc3C2C1 (centres unmarked) [Prior art compound F, 2-(2-carboxamidoethyl)-1,2,3,4,10,14b-hexahydrodibenzo[c,f]pyrazino[1,2-a]azepine, reference compound]",inhibition at 3.1 mg/kg,[3],52%
same,inhibition at 3.1 mg/kg,[2],52%
